Experimental data published in US20220324835A1 (Nurix Therapeutics, Inc., priority 2018, published 2022).
Read-outs that look alike come from different tables or passages of the source.

Legend:
T-cell [1] = assay: CD25 cell surface staining on T-cells co-stimulated with anti-CD3 and anti-CD28 antibody (Biological Example 2); assay type: cell-based, human; conditions: Homo sapiens, T-cell, read-out: CD25 staining Anti-CD3/Anti-CD28 stimulation; for fold induction at 0.3 µM: 0.3 μM Cbl-b inhibitor; for fold induction at 1 µM: 1 μM Cbl-b inhibitor; for fold induction at 4 µM: 4 μM Cbl-b inhibitor
Summary of the method: (§1)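 Values are fold-change over baseline: readings (IL-2 release, CD25 staining) from inhibitor-treated T-cells divided against untreated cells […]. No detailed procedure stated.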

T-cell [2] = assay: CD25 cell surface staining on T-cells stimulated with anti-CD3 antibody alone (Biological Example 2); assay type: cell-based, human; conditions: T-cell, read-out: CD25 staining Anti-CD3 stimulation; for fold induction at 1 µM: 1 μM Cbl-b inhibitor; for fold induction at 8 µM: 8 μM Cbl-b inhibitor
Cbl-b = Cbl-b (Homo sapiens, UniProt Q13191); assay: Cbl-b activity assay (Cbl-b inhibition assay), TR-FRET of Cbl-b interaction with UbcH5B-Ub; assay type: biochemical
Summary of the method: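 Compound-treated Cbl-b was incubated 1.5 h with Src kinase (60 nM final; 30 nM for asterisked values, which also used 50 mM instead of 100 mM NaCl), 1 mM ATP and 5 mM MgCl2. Binding to fluorescent Ub-loaded UbcH5B (C85K mutant) was then read by TR-FRET after 1 h more.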

T-cell [3] = assay: IL-2 secretion from T-cells co-stimulated with anti-CD3 and anti-CD28 antibody (Biological Example 2); assay type: cell-based, human; conditions: Homo sapiens, T-cell, read-out: IL-2 secretion Anti-CD3/Anti-CD28 stimulation; for fold induction at 0.3 µM: 0.3 μM Cbl-b inhibitor; for fold induction at 1 µM: 1 μM Cbl-b inhibitor; for fold induction at 4 µM: 4 μM Cbl-b inhibitor
Summary of the method: as §1

[4] = fold change over baseline, primary human total T-cells
[5] = assay buffer with 100 mM NaCl, 60 nM Src kinase, read-out: Cbl-b activity IC50
[6] = fold change over baseline (anti-CD3/anti-CD28 stimulated T-cells without inhibitor)

Cbl-b, sequence (Q13191 36-427): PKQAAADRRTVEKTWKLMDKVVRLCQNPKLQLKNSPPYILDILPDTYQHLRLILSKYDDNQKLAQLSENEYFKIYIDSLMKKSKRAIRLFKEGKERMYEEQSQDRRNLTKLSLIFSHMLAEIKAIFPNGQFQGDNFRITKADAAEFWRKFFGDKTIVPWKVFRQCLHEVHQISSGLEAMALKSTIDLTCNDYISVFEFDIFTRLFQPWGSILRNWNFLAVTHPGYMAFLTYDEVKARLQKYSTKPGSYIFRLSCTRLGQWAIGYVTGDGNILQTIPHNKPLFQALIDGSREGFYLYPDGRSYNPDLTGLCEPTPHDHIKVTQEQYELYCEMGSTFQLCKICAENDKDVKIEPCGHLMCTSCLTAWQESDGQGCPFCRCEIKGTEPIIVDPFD

Row | SMILES | fold induction at 0.3 µM (T-cell [1]; [4]) | fold induction at 1 µM (T-cell [1]; [4]) | fold induction at 4 µM (T-cell [1]; [4]) | fold induction at 1 µM (T-cell [2]; [4]) | fold induction at 8 µM (T-cell [2]; [4]) | IC50 (Cbl-b; [5]) | fold induction at 0.3 µM (T-cell [3]; [4]) | fold induction at 1 µM (T-cell [3]; [4]) | fold induction at 4 µM (T-cell [3]; [4]) | fold induction at 0.3 µM (T-cell [1]; [6]) | fold induction at 1 µM (T-cell [1]; [6]) | fold induction at 1 µM (T-cell [2]; Homo sapiens, fold change over baseline (anti-CD3/anti-CD28 stimulated T-cells without inhibitor)) | fold induction at 0.3 µM (T-cell [3]; [6]) | fold induction at 1 µM (T-cell [3]; [6]) | IC50 (Cbl-b; * assay buffer containing 50 mM NaCl instead of 100 mM NaCl and 30 nM Src kinase instead of 60 nM, read-out: Cbl-b activity IC50 (μM)*)
1 | C[C@H](Cc1nncn1C)c1cc(N[C@@H]2CCOC2)nc(N2Cc3c(cccc3C(F)(F)F)C2=O)c1 (stereo in doubt) [Compound 362, 2-(4-((R)-1-(4-methyl-4H-1,2,4-triazol-3-yl)propan-2-yl)-6-((S)-THF-3-ylamino)pyridin-2-yl)-4-(trifluoromethyl)isoindolin-1-one] | < 1 | 1.01 to 1.3 | 1.01 to 1.3 | 0.601 to 0.8 | 0.801 to 1 | 0.1 to 0.3 µM | 1.01 to 2.5 | 1.01 to 2.5 | 1.01 to 2.5 | – | – | – | – | – | –
2 | Cn1cnnc1[C@@H]1C[C@@H]1c1cccc(NC(=O)c2nc3c(C(F)(F)F)cccc3[nH]2)c1 [Compound 332, N-(3-((1S,2R)-2-(4-methyl-4H-1,2,4-triazol-3-yl)cyclopropyl)phenyl)-4-(trifluoromethyl)-1H-benzo[d]imidazole-2-carboxamide] | 1.01 to 1.3 | 1.01 to 1.3 | 1.01 to 1.3 | 0.601 to 0.8 | 0.801 to 1 | 0.1 to 0.3 µM | 1.01 to 2.5 | 1.01 to 2.5 | 2.51 to 5 | – | – | – | – | – | –
3 | Cn1cnnc1C(F)(F)[C@](C)(F)c1cccc(N2Cc3c(cccc3C(F)(F)F)C2=O)c1 [Compound 296a, (R)-2-(3-(1,1,2-trifluoro-1-(4-methyl-4H-1,2,4-triazol-3-yl)propan-2-yl)phenyl)-4-(trifluoromethyl)isoindolin-1-one] | 1.01 to 1.3 | 1.01 to 1.3 | 1.01 to 1.3 | 0.601 to 0.8 | > 1 | 0.1 to 0.3 µM | 1.01 to 2.5 | 1.01 to 2.5 | 2.51 to 5 | – | – | – | – | – | –
4 | C[C@H](Cc1nncn1C)c1cccc(NC(=O)c2cncc(C(F)(F)F)n2)c1 [Compound 189, (R)-N-(3-(1-(4-methyl-4H-1,2,4-triazol-3-yl)propan-2-yl)phenyl)-6-(trifluoromethyl)pyrazine-2-carboxamide] | > 1.76 | > 1.76 | > 1.76 | 0.601 to 0.8 | > 1 | 0.1 to 0.3 µM | 1.01 to 2.5 | 2.51 to 5 | 5 to 7.5 | – | – | – | – | – | –
5 | C[C@H](Sc1nncn1C)c1cccc(NC(=O)c2cccc(S(C)(=O)=O)n2)c1 [Compound 80, (S)-N-(3-(1-((4-methyl-4H-1,2,4-triazol-3-yl)thio)ethyl)phenyl)-6-(methylsulfonyl)picolinamide] | 1.01 to 1.3 | 1.01 to 1.3 | 1.01 to 1.3 | < 0.6 | < 0.6 | 1 to 3 µM | < 1 | 1.01 to 2.5 | 1.01 to 2.5 | – | – | – | – | – | –
6 | C[C@H](Cc1nncn1C)c1cc(-c2cn[nH]c2)nc(N2Cc3c(cccc3C(F)(F)F)C2=O)c1 [Example 684, (R)-2-(4-(1-(4-methyl-4H-1,2,4-triazol-3-yl)propan-2-yl)-6-(1H-pyrazol-4-yl)pyridin-2-yl)-4-(trifluoromethyl)isoindolin-1-one] | – | – | – | – | – | 0.301 to 1 µM | – | – | – | < 1 | < 1 | < 0.6 | < 1 | < 1 | –
7 | C[C@H](Sc1nncn1C)c1cccc(NC(=O)c2cc(C(C)(C)O)cc(C(F)(F)F)n2)c1 [Compound 85, 4-(1-hydroxy-1-methyl-ethyl)-N-[3-[(1S)-1-[(4-methyl-1,2,4-triazol-3-yl)sulfanyl]ethyl]phenyl]-6-(trifluoromethyl)pyridine-2-carboxamide] | 1.01 to 1.3 | 1.01 to 1.3 | 1.01 to 1.3 | 0.601 to 0.8 | > 1 | 0.1 to 0.3 µM | < 1 | < 1 | 1.01 to 2.5 | – | – | – | – | – | –
8 | C[C@H](Sc1nncn1C)c1cccc(NC(=O)c2cncc(C(F)(F)F)n2)c1 [Compound 77, N-[3-[(1S)-1-[(4-methyl-1,2,4-triazol-3-yl)sulfanyl]ethyl]phenyl]-6-(trifluoromethyl)pyrazine-2-carboxamide] | < 1 | 1.01 to 1.3 | 1.01 to 1.3 | < 0.6 | 0.601 to 0.8 | 0.301 to 1 µM | < 1 | 1.01 to 2.5 | 1.01 to 2.5 | – | – | – | – | – | –
9 | C[C@H](Cc1nncn1C)c1cccc(NC(=O)c2cc(S(C)(=O)=O)cc(C3CC3)n2)c1 [Compound 198, 6-cyclopropyl-N-[3-[(1R)-1-methyl-2-(4-methyl-1,2,4-triazol-3-yl)ethyl]phenyl]-4-methylsulfonyl-pyridine-2-carboxamide] | 1.01 to 1.3 | 1.01 to 1.3 | < 1 | 0.801 to 1 | > 1 | 0.1 to 0.3 µM | 1.01 to 2.5 | 1.01 to 2.5 | 1.01 to 2.5 | – | – | – | – | – | –
10 | Cc1cc(C(=O)Nc2cccc([C@H](C)Sc3nncn3C)c2)nc2ccccc12 [Compound 30, (S)-4-Methyl-N-(3-(1-((4-methyl-4H-1,2,4-triazol-3-yl)thio)ethyl)phenyl)quinoline-2-carboxamide] | 1.01 to 1.3 | 1.01 to 1.3 | 1.01 to 1.3 | 0.601 to 0.8 | 0.801 to 1 | 0.301 to 1 µM | 1.01 to 2.5 | 1.01 to 2.5 | 2.51 to 5 | – | – | – | – | – | 0.301 to 1 µM
11 | C[C@H](Cc1nncn1C)c1cccc(NC(=O)c2cc(C(=O)N3CC[C@](C)(O)C3)ccn2)c1 [Compound 222, 4-((S)-3-hydroxy-3-methylpyrrolidine-1-carbonyl)-N-(3-((R)-1-(4-methyl-4H-1,2,4-triazol-3-yl)propan-2-yl)phenyl)picolinamide] | 1.51 to 1.75 | 1.31 to 1.5 | 1.51 to 1.75 | < 0.6 | < 0.6 | 0.301 to 1 µM | < 1 | < 1 | < 1 | – | – | – | – | – | –
12 | C[C@H](Sc1nncn1C)c1ccnc(N2Cc3c(cccc3C(F)(F)F)C2=O)c1 [Compound 172a, (S)-(4-(1-((4-methyl-4H-1,2,4-triazol-3-yl)thio)ethyl)pyridin-2-yl)-4-(trifluoromethyl)isoindolin-1-one] | < 1 | < 1 | < 1 | < 0.6 | < 0.6 | 0.301 to 1 µM | 2.51 to 5 | 2.51 to 5 | 2.51 to 5 | – | – | – | – | – | –
13 | C[C@H](Sc1nncn1C)c1cccc(N2Cc3c(cccc3C(F)(F)F)C2=O)c1 [Compound 166a, (S)-2-(3-(1-((4-methyl-4H-1,2,4-triazol-3-yl)thio)ethyl)phenyl)-4-(trifluoromethyl)isoindolin-1-one] | < 1 | 1.01 to 1.3 | 1.01 to 1.3 | 0.601 to 0.8 | 0.801 to 1 | 0.1 to 0.3 µM | < 1 | < 1 | 1.01 to 2.5 | – | – | – | – | – | –
